The results in this text go back to patent publication US5686486A, “4-hydroxy-benzopyran-2-ones and 4-hydroxy-cycloalkyl[b]pyran-2-ones useful to treat retroviral infections” (priority 1995, dated 1997).

Where a name gives a salt, the structure may show the parent alone.

This assay addresses HIV-1 protease (Human immunodeficiency virus type 1 group M subtype B, UniProt P04585). In words: biochemical. The following applies: for IC50: HIV-1 Protease IC50; for inhibition at 1 µM: read-out: HIV-1 Protease % Inhib, dose 1.000 uM; for inhibition at 10 µM: read-out: HIV-1 Protease % Inhib, dose 10.000 uM; for inhibition at 100 µM: read-out: HIV-1 Protease % Inhib, dose 100.000 uM. The protocol: The HIV protease screening assay is based on fluorescently labeled substrate which can be resolved from nonlabeled cleavage product using special beads coated with streptavidin. The substrate is biotinylated at the amino terminal arginine and fluorescently labeled with fluorescein isothiocynate (FITC) at the carboxyl terminal lysine. This assay has been employed to detect novel, nonpeptidic inhibitors of HIV-1 protease. Substrate (20 μl of 0.2 μM), sample (10 μl of desired concentration), and enzyme (10 μl of 0.1 μM) are added to a 96 well pandex plate. The assay is run in 0.1M sodium acetate buffer at pH 5.5 in the presence of 1.0M sodium chloride and 0.05% NP-40 with incubated in the dark for one hour at room temperature. Strepavidin coated polystyrene beads {40 μl of 0.1% (w/v)} are added and the plate is incubated in the dark for an additional half hour. The labeled cleavage product is separated from the unreacted substrate via filtration and is read on the Idexx screen machine. The data are analyzed by appropriate computer algorithms to ascertain percent inhibition values.

As for `CCC(c1cccc(NC(=O)CCCNC(=O)OC(C)(C)C)c1)c1c(O)c2ccccc2oc1=O` (stereo not drawn) [Example 50, Coumarin, 4-hydroxy-3-[1-[3-[[4-[(1,1-dimethylethoxycarbonyl)amino]-1-oxobutyl]amino]phenyl]propyl]-], the IC50 – broadly, the concentration that inhibits the measured activity by half – is 2300 nM; the inhibition at 1 µM was 33.5%; the inhibition at 10 µM stood at 80.3%; the inhibition at 100 µM was found to be 95.5%.
For `CCC(c1cccc(NC(=O)CC[C@H](NC(=O)OC(C)(C)C)C(=O)OC(C)(C)C)c1)c1c(O)c2ccccc2oc1=O` (stereo partly drawn) [Example 51, L-Glutamine, N2-[(1,1-dimethylethoxy)carbonyl]-N-[3-[1-(4-hydroxy-2-oxo-2H-1-benzopyran-3-yl)propyl]phenyl]-, 1,1-dimethylethyl ester], the inhibition at 1 µM is less than 10%, the inhibition at 10 µM was less than 10% and the inhibition at 100 µM came out at 39.6%.
`CCC(c1cccc(NC(=O)CC[C@H](N)C(=O)O)c1)c1c(O)c2ccccc2oc1=O` (stereo partly drawn) [Example 52, L-Glutamine, N-[3-[1-(4-hydroxy-2-oxo-2H-1-benzopyran-3-yl)propyl]phenyl]-, mono(trifluoroacetate) (salt)]: the IC50 amounted to 3100 nM, the inhibition at 1 µM is 26.8%, the inhibition at 10 µM was 81.5% and the inhibition at 100 µM amounted to 120%.
As for `CCC(c1cccc(NC(=O)CCCc2ccccc2)c1)c1c(O)c2ccccc2oc1=O` (stereo not drawn) [Example 53, Coumarin, 4-hydroxy-3-[1-[3-[(i-oxo-4-phenylbutyl)amino]phenyl]propyl]-], the inhibition at 1 µM was less than 10%, the inhibition at 10 µM was less than 10% and the inhibition at 100 µM came to 71.8%.
Regarding `CCC(c1cccc(NC(=O)CCCCc2ccccc2)c1)c1c(O)c2ccccc2oc1=O` (stereo not drawn) [Example 54, Coumarin, 4-hydroxy-3-[1-[3-[(1-oxo-5-phenylpentyl)amino]phenyl]propyl]-], the inhibition at 1 µM is less than 10%.
In the case of `CCC(c1cccc(NC(=O)Cc2ccccc2)c1)c1c(O)c2ccccc2oc1=O` (stereo not drawn) [Example 55, Coumarin, 4-hydroxy-3-[1-[3-[[(phenylmethyl)carbonyl]amino]phenyl]propyl]-], the inhibition at 1 µM was less than 10%, the inhibition at 10 µM was less than 10% and the inhibition at 100 µM turned out to be 72%.
As to `CCC(c1cccc(NC(=O)CCC2CCCCC2)c1)c1c(O)c2ccccc2oc1=O` (stereo not drawn) [Example 56, Coumarin, 3-[1-[3-[(3-cyclohexyl-1-oxopropyl)amino]phenyl]propyl]-4-hydroxy-], the inhibition at 1 µM is less than 10%, the inhibition at 10 µM was less than 10% and the inhibition at 100 µM stood at 49.5%.
In the case of `CCC(c1cccc(NC(=O)CCc2ccccc2)c1)c1c(O)c2ccc(OC)cc2oc1=O` (stereo not drawn) [Example 57, Coumarin, 4-hydroxy-7-methoxy-3-[1-[3-[(1-oxo-3-phenylpropyl)amino]phenyl]propyl]-], the half-inhibitory concentration (IC50) is 2800 nM, the inhibition at 1 µM stood at 17.6%, the inhibition at 10 µM was 94.4% and the inhibition at 100 µM came to 99.3%.
In the same order, the values of `CCC(c1cccc(NC(=O)CCNC(=O)OC(C)(C)C)c1)c1c(O)c2ccc(OC)cc2oc1=O` (stereo not drawn) [Example 58, Coumarin, 4-hydroxy-3-[1-[3-[[3-[(1,1-dimethylethoxycarbonyl)amino]-1-oxopropyl]amino]phenyl]propyl]-7-methoxy-] are 1200 nM, 36.3%, 90.2% and 108%.
With `CCC(c1cccc(NC(=O)C2CCCN2C(=O)OC(C)(C)C)c1)c1c(O)c2ccccc2oc1=O` (stereo not drawn) [Example 59, 1-Pyrrolidinecarboxylic acid, 2-[[[3-[1-(4-hydroxy-2-oxo-2H-1-benzopyran-3-yl)propyl]phenyl]amino]carbonyl]-, 1,1-dimethylethyl ester], the inhibition at 1 µM is less than 10%, the inhibition at 10 µM worked out at 21.5% and the inhibition at 100 µM was 82.8%.
`CCC(c1cccc(NC(=O)C(C)NC(=O)OC(C)(C)C)c1)c1c(O)c2ccccc2oc1=O` (stereo not drawn) [Example 60, Carbamic acid, [2-[[3-[1-(4-hydroxy-2-oxo-2H-1-benzopyran-3-yl)propyl]phenyl]amino]-1-methyl-2-oxoethyl]-, 1,1-dimethylethyl ester]: the IC50 is 1100 nM, the inhibition at 1 µM was found to be 31.5%, the inhibition at 10 µM stood at 90.8% and the inhibition at 100 µM was 117%.
As to `CCC(c1cccc(NC(=O)C(C)N)c1)c1c(O)c2ccccc2oc1=O` (stereo not drawn) [Example 61, Propanamide, 2-amino-N-[3-[1-(4-hydroxy-2-oxo-2H-1-benzopyran-3-yl)propyl]phenyl]-, mono(trifluoroacetate) (salt)], half-maximal inhibition (IC50) was put at 1000 nM, the inhibition at 1 µM came to 77.8%, the inhibition at 10 µM was found to be 115% and the inhibition at 100 µM was determined as 119%.
Consider `CCC(c1cccc(NC(=O)CCc2ccc(O)cc2)c1)c1c(O)c2ccccc2oc1=O` (stereo not drawn) [Example 62, Coumarin, 4-hydroxy-3-[1-[3-[[3-(4-hydroxyphenyl)-1-oxopropyl]amino]phenyl]propyl]-], for which the inhibition at 1 µM is less than 10%, the inhibition at 10 µM was determined as 10.6% and the inhibition at 100 µM is 78.3%.
In the case of `CCC(c1cccc(NC(=O)CCn2ccc3ccccc32)c1)c1c(O)c2ccccc2oc1=O` (stereo not drawn) [Example 63, Coumarin, 4-hydroxy-3-[1-[3-[[3-(^1 H-indol-1-yl)-1-oxopropyl]amino]phenyl]propyl]-], it took 2000 nM to reach half-maximal inhibition (IC50), the inhibition at 1 µM was 77.6%, the inhibition at 10 µM was found to be 90.3% and the inhibition at 100 µM turned out to be 111%.
In the same order, the values of `CCC(c1cccc(NC(=O)CCc2cccc3ccccc23)c1)c1c(O)c2ccccc2oc1=O` (stereo not drawn) [Example 64, Coumarin, 4-hydroxy-3-[1-[3-[[3-(1-naphthyl)-1-oxopropyl]amino]phenyl]propyl]-] are 5800 nM, 29.1%, 78.1% and 104%.
As for `CCC(c1cccc(NC(=O)CCSc2nc3ccccc3s2)c1)c1c(O)c2ccccc2oc1=O` (stereo not drawn) [Example 65, Coumarin, 3-[1-[3-[[3-[(2-benzothiazolyl)thio]-1-oxopropyl]amino]phenyl]propyl]4-hydroxy-], the inhibition at 1 µM is less than 10%, the inhibition at 10 µM amounted to 48.4% and the inhibition at 100 µM was 86.1%.
On to `CC(C)(C)OC(=O)CC(c1ccccc1)c1c(O)c2ccccc2oc1=O` (stereo not drawn) [Example 66, 4-hydroxy-3-[α-tert-butyloxycarbonylmethyl]benzylcoumarin], for which the inhibition at 1 µM was less than 10%, the inhibition at 10 µM was less than 10% and the inhibition at 100 µM was 52.6%.
Turning to `C=CCOc1cccc(C(CC)c2c(O)c3ccccc3oc2=O)c1` (stereo not drawn) [Example 67, 3-(1'-(3-Allyloxyphenyl)propyl)-4-hydroxycoumarin], the inhibition at 1 µM is less than 10%, the inhibition at 10 µM came out at 11.7% and the inhibition at 100 µM stood at 60.9%.
Consider `CCC(c1cccc(OCC(O)CO)c1)c1c(O)c2ccccc2oc1=O` (stereo not drawn) [Example 68, 3-(1'-(3-((2,3-Dihydroxy)propyloxy)phenyl)propyl)-4-hydroxycoumarin], for which the inhibition at 1 µM is less than 10%, the inhibition at 10 µM is less than 10% and the inhibition at 100 µM came to 56%.
